According to patent US20250375437A1, “METHODS FOR IMPROVING COGNITIVE FUNCTION” (priority 2024, published 2025):

Assays:
[1] = Drug concentration in the plasma of the patients after the end of the treatment; conditions: human, in vivo, after 12 weeks of 1 to 30 mg dextromethorphan per day
Protocol: Both groups were treated with drug. The course of treatment for the group taking dextromethorphan and sodium valproate (BDDM group) was 1 to 30 mg of dextromethorphan and 500 to 2500 mg of sodium valproate per day for 12 weeks. The course of treatment for the group taking sodium valproate and placebo (BDPl group) was 500-2500 mg of sodium valproate and placebo per day for 12 weeks. After the end of the treatment, the concentrations of dextromethorphan in the plasma of the patients were about 10-50 ng/ml (0.05-0.2 μM), and the concentrations of sodium valproate in the plasma were about 50-100 μg/dl.

[2] = test system: patients with bipolar II disorder; test: Continuous Performance Test (Conner's CPT II), sustained attention; assay type: in vivo, human; conditions: 12 weeks versus baseline, result in words
Source text: The present invention recruited patients diagnosed with bipolar II disorder (BD-II). The patients were diagnosed by psychiatrists using the improved Chinese version of the Schedule of Affective Disorder and Schizophrenia-Life Time (SADS-L) with good inter-rater reliability and the Diagnostic and Statistical Manual of Mental Disorders, Fourth Edition, Text Revision (DSM-IV-TR) to confirm that the patient meets the integration points of bipolar II disorder in the DSM-IV-TR.
The purpose of the test of the present invention was to test whether dextromethorphan (DM) and sodium valproate (trade name: Depakine) could improve the cognitive function of patients. Therefore, the patients with bipolar II disorder in the present invention were divided into two groups: one group was the patients taking dextromethorphan and sodium valproate together (BDDM), and the other group was the patients taking sodium valproate and placebo (BDPl). Before the patients of the two group took the drug, the present invention first used the following evaluation test to perform a basic evaluation of the patients of the two groups.
The present invention used the computer version of Conner's CPT II 20 which was used to detect the sustained attention of the patients. In the reliability of Conner's CPT II, the split-half reliability ranged from 0.66 to 0.95, and the retest reliability after three months was […]. […]

## COc1ccc2c(c1)[C@]13CCCC[C@@H]1[C@H](C2)N(C)CC3 [dextromethorphan]
[1]
  concentration at 12 weeks: 10 to 50 ng/mL
[1]; value in brackets
  concentration at 12 weeks: 50 to 200 nM
[2]
  sustained attention (scores of CPT) after the end of the course of treatment: improvement in sustained attention was due to the efficacy of dextromethorphan
